Results published in ChEMBL document CHEMBL1138350, “Allosteric modulation of the dopamine receptor by conformationally constrained type VI beta-turn peptidomimetics of Pro-Leu-Gly-NH2” (J Med Chem, 2007).
The source made the active and inactive calls. The rule behind the calls is not given here. Peptide text beside a SMILES is read from it.

Assays:
Assay type in all cases: cell membranes
Details in all cases: Striatum
Bos taurus [1] = organism: Bos taurus; test: Enhancement of [3H]NPA binding to dopamine receptor in bovine striatal membrane at 10 nM
Bos taurus [2] = organism: Bos taurus; test: Enhancement of [3H]NPA binding to dopamine receptor in bovine striatal membrane at 100 nM
Bos taurus [3] = organism: Bos taurus; test: Enhancement of [3H]NPA binding to dopamine receptor in bovine striatal membrane at 1 uM

Row | Activity (Bos taurus [1]) | Activity (Bos taurus [2]) [%] | Activity (Bos taurus [3]) | SMILES
1 | 11.4% | – | – | NC(=O)[C@]12CCCN1C(=O)[C@@]1(CCCN1C(=O)[C@@H]1CCCN1)CC2
2 | Active | 19.5 | Active | CC(C)C[C@@]1(NC(=O)[C@@H]2CCCN2)CC[C@@]2(C(N)=O)CCCN2C1=O
3 | – | 38.2 | – | NC(=O)[C@H]1CS[C@@H]2CC[C@]3(CCCN3C(=O)[C@@H]3CCCN3)C(=O)N12
4 | – | 34 | – | NC(=O)[C@@H]1CCCN1C(=O)[C@@H]1CCCN1C(=O)[C@@H]1CCCN1 (H-Pro-Pro-Pro-NH2)
